Measurements from patent US20220257622A1, “COMPOSITION FOR MAINTAINING LACTOBACILLUS DOMINANCE” (Kimberly-Clark Worldwide, Inc., priority 2015, published 2022).

system: L. crispatus and E. coli; assay: Therapeutic effect protocol: L. crispatus / E. coli co-culture in LAPT-g medium with carbon source; assay type: cell-based; details: therapeutic agent (carbon source) 1 wt/vol %; co-culture incubated anaerobically at 37° C.; measured 36 hours after inoculation
Protocol: Colonies of L. crispatus and E. coli were prepared as follows. A colony of L. crispatus was transferred to 7 ml MRS broth and incubated anaerobically (using BD GasPak EZ anaerobe container system with indicator) at 37° C. without shaking for 18-20 hours. A colony of E. coli was transferred to 5m1 TSB broth and incubated aerobically (shaking at 100 rpm) at 37° C. for 18-20 hours.
Colonies were then inoculated as follows. Bacterial cultures were gently vortexed and 1 mL of each culture was transferred to a corresponding 2.0 mL micro-centrifuge tube and then centrifuged for two minutes at 14,500 rpm. The cultural supernatant was removed and the cell pellet was re-suspended in 1 mL of 0.95% (wt/vol %) saline. The re-suspended colony was then centrifuged for two minutes at 14,500 rpms and the supernatant was removed. For L. crispatus, the pellet was re-suspended in 1 mL of 0.95% saline to achieve ˜10^7 -10^8 cfu/mL. For E. coli the pellet was re-suspended in 1 mL of 0.95% saline to achieve ˜10^8-10^9 cfu/mL.
Media were prepared as follows.
All of the ingredients in Table 1 were combined and the pH was adjusted to 6.5. The media were then autoclaved for 20 minutes at 125° C. To evaluate the effect of various saccharides and organic acids (noted as carbon sources below), the following samples were prepared:
Five milliliters (5 mL) of each medium was transferred to a test tube in duplicates for subsequent inoculation. A master mixture of L. crispatus and E. coli, prepared as described above, was prepared in 1,000:1 ratio. Each (5 ml) test tube was inoculated with the master mixture to give 10^5-10^6 total CFU L. crispatus and 100-1,000 total CFU E. coli per tube.
To establish a negative control, one tube was vortexed and 100 μL was removed to determine the initial cell concentrations by serial dilutions and plating (2 plates per dilution). L. crispatus is selected on MRS agar plates incubated anaerobically at 37° C. for two days. E. coli is selected on TSA plates incubated aerobically at 37° C. for one day. The co-cultures were incubated in an anaerobic container with BD GasPaks at 37° C. for 36 hours.
The effect of the carbon source on the ratio of L. crispatus to E. coli was measured 36 hours after inoculation. The co-culture tube was vortexed and 100 μL was removed to determine the final cell concentrations by serial dilutions and plating (2 plates per dilution). L. crispatus is selected on MRS agar plates incubated anaerobically at 37° C. for two days. E. coli is selected on TSA plates incubated aerobically at 37° C. for one day.
The therapeutic effect of the formulation was then measured using the assay described above in the Test Methods section above. The therapeutic effect is summarized below as the ratio of L. crispatus to E. coli.

Molecule	L. crispatus/ E. coli ratio
OC[C@H]1O[C@@](CO)(OC[C@@]2(O[C@H]3O[C@H](CO)[C@@H](O)[C@H](O)[C@H]3O)O[C@H](CO)[C@@H](O)[C@@H]2O)[C@@H](O)[C@@H]1O [Sample 1, 1-Kestose]	640
O=CC[C@H](O)[C@H](O)CO [Sample 2, 2-Deoxy-D-Ribose]	161
OC[C@H]1O[C@@](CO)(O[C@H]2O[C@H](CO)[C@@H](O[C@H]3O[C@H](CO)[C@@H](O)[C@H](O)[C@H]3O)[C@H](O)[C@H]2O)[C@@H](O)[C@@H]1O [Sample 3, Erlose]	32.1
OC[C@@H](O)[C@@H](O[C@H]1O[C@H](CO)[C@@H](O)[C@H](O)[C@H]1O)[C@H](O)[C@@H](O)CO [Sample 4, Maltitol]	202
Maltotriose [Sample 5]	535
Palatinose [Sample 6]	600
